PubChem BioAssay (NCI)
Values joined by “and” are separate entries in the source; they are usually repeats but may differ in a detail not shown here. Identical values can stand only once.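 1) Cells in 96-well plates. 2) Compound, 48 h, 5 concentrations. 3) Linear interpolation between surrounding doses. 4) Unreached endpoint = highest concentration. At the GI50, growth is halved. TGI: concentration producing complete growth inhibition.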

Tests used:
Experiment in all cases: NCI anticancer screen, dose series, 48 h
RXF 393 renal = system: RXF 393 renal
COLO 205 colon = system: COLO 205 colon
M14 melanoma = system: M14 melanoma
HCT-15 colon = system: HCT-15 colon
OVCAR-4 ovarian = system: OVCAR-4 ovarian
UACC-62 melanoma = system: UACC-62 melanoma
HOP-62 NSCLC = system: HOP-62 NSCLC
SW-620 colon = system: SW-620 colon
SK-MEL-5 melanoma = system: SK-MEL-5 melanoma
DU-145 prostate = system: DU-145 prostate
HS 578T breast = system: HS 578T breast
OVCAR-3 ovarian = system: OVCAR-3 ovarian
OVCAR-5 ovarian = system: OVCAR-5 ovarian

SMILES | TGI (RXF 393 renal) [µM] | TGI (COLO 205 colon) [µM] | TGI (M14 melanoma) [µM] | TGI (HCT-15 colon) [µM] | TGI (OVCAR-4 ovarian) [µM] | TGI (UACC-62 melanoma) [µM] | TGI (HOP-62 NSCLC) [µM] | TGI (SW-620 colon) [µM] | TGI (SK-MEL-5 melanoma) [µM] | TGI (DU-145 prostate) | TGI (HS 578T breast) [µM] | TGI (OVCAR-3 ovarian) [µM] | TGI (OVCAR-5 ovarian) [µM] | GI50 (HCT-15 colon) [nM] | GI50 (OVCAR-4 ovarian) [µM]
O=C1c2ccccc2N2OC3(N4CCOCC4)CCCC3C12c1ccccc1 (stereo not given) | > 100 | > 100 | > 100 | > 100 | > 100 | > 100 | > 100 | > 100 | > 100 |  |  |  |  |  | 
CC(N)(CC(O)(C(F)(F)Cl)C(F)(F)Cl)C(=O)O (stereo not given) |  | > 10 | > 10 | > 10 | > 10 | > 10 | > 10 | > 10 | > 10 | > 10 µM | > 10 | > 10 | > 10 |  | 
Cn1c(CNc2ccc(-c3n[nH]c(=S)n3C)cc2)n[nH]c1=S |  | > 100 | > 100 | > 100 | > 100 |  | > 100 | > 100 | > 100 | > 100 µM |  | > 100 | > 100 |  | 
O=C(c1ccccc1)[C@H]1Nc2ccc(Cl)cc2[C@H]2CCC[C@@H]12 | 82.6 | 91.7 | 29.2 | 98.3 | 75.9 | > 100 | > 100 | > 100 | 23 |  |  | 68.6 | > 100 |  | 
O=[N+]([O-])c1ccc(/C=N/Nc2nc3ccccc3[nH]2)o1 | 28.2 | 23 | 27.6 | 42.8 | 21.6 |  | 35.4 | 28.3 | 14.3 | 27.1 µM | > 100 | 28.1 | 49.8 |  | 
O=C1CC(c2cccc(Cl)c2)Nc2ccc(N3CCCC3)cc21 (stereo not given) | 0.0845 |  | > 100 | > 100 | > 100 |  | > 100 | > 100 | 0.087 | 2.25 µM and 13.6 µM |  | > 100 |  | 32.9 | 18.6
CN1CCOC(C(NC(=O)c2ccccc2)c2ccccc2)C1=O (stereo not given) | > 100 | > 100 | > 100 | > 100 | > 100 | > 100 | > 100 | > 100 | > 100 |  |  | > 100 | > 100 |  | 
O=C(c1ccc(Cl)cc1)N(C(=O)N1CCCCC1)c1ccccc1 |  | > 100 | > 100 | > 100 |  | > 100 |  | > 100 | > 100 | > 100 µM | > 100 | > 100 | > 100 |  | 
COc1cc(C2c3cc4c(cc3OC(NN)C2C)OCO4)cc(OC)c1O (stereo not given) | > 100 | 40.4 | > 100 | 34.2 | > 100 | 18.9 |  | > 100 | 12.7 | > 100 µM |  | > 100 | > 100 |  | 
O=C(CCc1cc(O)cc(O)c1)NCCc1cc(O)cc(OCc2ccccc2)c1 | > 100 | > 100 | > 100 | > 100 |  | > 100 | > 100 | > 100 | 37.1 | > 100 µM | > 100 | > 100 | > 100 |  | 
NNc1nnc(CCCCCCCCc2nnc(NN)n2N)n1N | > 100 | > 100 | > 100 | > 100 | > 100 |  | > 100 | > 100 | > 100 | > 100 µM |  |  | > 100 |  | 
C1CCC(N=C2N(C3CCCCC3)C(=NC3CCCCC3)N2C2CCCCC2)CC1 | > 100 | > 100 | > 100 | > 100 | > 100 | > 100 | > 100 | > 100 | > 100 |  |  | > 100 | > 100 |  | 
CCCCCCCCOCC(COC(=O)CCCCCCC)OC(=O)CCCCCCC (stereo not given) |  | > 100 | > 100 | > 100 | > 100 | > 100 | > 100 | > 100 | > 100 |  |  | > 100 | > 100 |  | 
Clc1ccc(C=Nc2ccc(Oc3ccc(Cl)cc3)c(Cl)c2)cc1 |  | 36.5 | 46.9 | 44.2 | 76.1 | 41.5 | 37.5 | > 100 | 49.5 | > 100 µM | 51.4 | 40.4 | > 100 |  | 
CC1=NN(c2nc(N)nc(C(C)Cl)n2)C(C)(C)C1 (stereo not given) | > 100 | > 100 | > 100 | > 100 | > 100 | > 100 | > 100 | > 100 | > 100 | > 100 µM | > 100 |  |  |  | 
COC(CN(C)C(=S)Nc1cccc2ccccc12)OC | > 10 | > 10 | > 10 | > 10 | > 10 | > 10 | > 10 | > 10 | > 10 | > 10 µM | > 10 | > 10 |  |  | 
Cc1cc(N(CCC#N)CCC#N)ccc1/C(N=Nc1ccccc1)=N\NC(=O)c1cc(Cl)ccc1O | 70.2 | 39.1 | > 100 | 53.1 | 65.4 | 27.7 | > 100 |  | 46.5 | > 100 µM | 80.2 | 72.8 |  |  | 
CSc1nncc(-c2cc3c(c(SC)n2)CCCC3)n1 | > 100 | > 100 | > 100 | > 100 | > 100 | > 100 | > 100 | > 100 | > 100 | > 100 µM |  | > 100 | > 100 |  | 
CC1(C)O[C@@H]2[C@@H](COC(C)(C)O[C@H]2C2SCCCS2)O1 | > 100 | > 100 | > 100 | > 100 | > 100 | > 100 | > 100 | > 100 | > 100 | > 100 µM |  | > 100 | > 100 |  | 
